Results on one substance are retold here after paper PMC4673880, “Structure and substrate selectivity of the 750-kDa α6β6 holoenzyme of geranyl-CoA carboxylase” (Nature Communications, 2015).

The target of this test is T1, PfGCC (geranyl-CoA carboxylase holoenzyme, α6β6) (Pseudomonas protegens, UniProt Q4K8Z5).
T1 construct: gene atuC; bicistronic; beta N-terminal His6-tagged (tag not removed), alpha untagged; expressed in E. coli BL21 Star (DE3); 750-kDa α6β6 dodecamer; with Geranyl-CoA carboxylase alpha subunit (biotin-containing; BC, BT and BCCP domains)
In words: coupled pyruvate kinase / lactate dehydrogenase assay, ATP hydrolysis as NADH loss at […] nm. In kind it is biochemical. The conditions noted are these: pH 8.0, 0.5 mM ATP, 8 mM MgCl2, 40 mM KHCO3, 250 mM KCl; cis/trans mixture, only ~25% cis, concentration counted as total; read-out: apparent Km.

For geranyl-CoA, the Michaelis-Menten constant (Km) worked out at 50 µM.

The term Km denotes the substrate concentration at which the rate is half of its maximum.
